# Test results as given in patent US9090900B2, “Coryneform bacterium transformant and process for producing phenol using the same” (priority 2010, dated 2015).
# Where two headings read alike, the source gives them in different places.
# Experiments:
# Pseudomonas putida F1 = conditions: LB (+glucose) liquid medium, 30° C.
# Experimental: (§1) A growth inhibition test in aerobic culture was performed to examine the influence of phenol on Corynebacterium glutamicum, Escherichia coli, and Pseudomonas putida. Pseudomonas putida S12, which was used for the test, is reported to be a solvent-resistant strain. In the report, disclosed is an unparalleled technology using the strain as a host in phenol production.
# (§2) Pseudomonas putida F1 and S12 were applied to LB agar medium (1% polypeptone, 0.5% yeast extract, 0.5% NaCl and 1.5% agar) and were left stand in the dark at 30° C. for 15 hours.
# (§3) An inoculation loop of each of the Pseudomonas putida F1 and S12 grown on a plate as above was inoculated into a test tube containing 10 mL of LB (+glucose) liquid medium (1% polypeptone, 0.5% yeast extract, 0.5% NaCl and 0.4% glucose), and aerobic culture was performed with shaking at 30° C. for 13 hours.
# (§4) The Pseudomonas putida F1 and S12 grown in the above conditions were each inoculated into 100 mL of LB (+glucose) liquid medium in such a way that the initial bacterial cell concentration would be OD610=0.05, phenol was added at the same time in such a way that the final concentration would be 0, 0.10, or 0.20 […], and aerobic culture was performed with shaking at 30° C.
# (§5) The growth of bacterial cells was determined by absorbance measurement at OD610.
# Pseudomonas putida S12 = conditions: LB (+glucose) liquid medium, 30° C.
# Experimental: as §1, §2, §3, §4, §5
# Escherichia coli JM109 = conditions: LB liquid medium, 37° C.
# Experimental: as §1
# Escherichia coli JM109 was applied to LB agar medium (1% polypeptone, 0.5% yeast extract, 0.5% NaCl and 1.5% agar) and was left stand in the dark at 37° C. for 15 hours.
# An inoculation loop of the Escherichia coli JM109 grown on a plate as above was inoculated into a test tube containing 10 mL of LB liquid medium (1% polypeptone, 0.5% yeast extract, and 0.5% NaCl), and aerobic culture was performed with shaking at 37° C. for 13 hours.
# The Escherichia coli JM109 grown in the above conditions was inoculated into 100 mL of LB liquid medium in such a way that the initial bacterial cell concentration would be OD610=0.05, phenol was added at the same time in such a way that the final concentration would be 0, 0.16, or 0.20 mM, and aerobic culture was performed with shaking at 37° C. The growth of bacterial cells was determined by absorbance measurement at OD610.
# as §5
# [1] = test system: Corynebacterium glutamicum R; conditions: A liquid medium, 33° C.
# Experimental: as §1
# Corynebacterium glutamicum R was applied to A agar medium (2 g of (NH2)2CO3 7 g of (NH4)2SO4, 0.5 g of KH2PO4, 0.5 g of K2HPO4, 0.5 g of MgSO4.7H2O, 1 mL of 0.06% (w/v) Fe2SO4.7H2O+0.042% (w/v) MnSO4.2H2O, 1 mL of 0.02% (w/v) biotin solution, 2 mL of 0.01% (w/v) thiamin solution, 2 g of yeast extract, 7 g of vitamin assay casamino acid, 40 g of glucose, and 15 g of agar were suspended in 1 L of distilled water) and was left stand in the dark at 33° C. for 15 hours.
# An inoculation loop of the Corynebacterium glutamicum R grown on a plate as above was inoculated into a test tube containing 10 mL of A liquid medium (2 g of (NH2)2CO3 7 g of (NH4)2SO4, 0.5 g of KH2PO4, 0.5 g of K2HPO4, 0.5 g of MgSO4.7H2O, 1 mL of 0.06% (w/v) Fe2SO4.7H2O+0.042% (w/v) MnSO4.2H2O, 1 mL of 0.02% (w/v) biotin solution, 2 mL of 0.01% (w/v) thiamin solution, 2 g of yeast extract, 7 g of vitamin assay casamino acid, and 40 g of glucose were suspended in 1 L of distilled water) and was aerobically cultured with shaking at 33° C. for 13 hours.
# The Corynebacterium glutamicum R grown in the above conditions was inoculated into 100 mL of A liquid medium in such a way that the initial bacterial cell concentration would be OD610=0.05, phenol was added at the same time in such a way that the final concentration would be 0, 0.16, 0.2, 0.24, or 0.32 mM, and aerobic culture was performed with shaking at 33° C. The growth of bacterial cells was determined by absorbance measurement at OD610.
# as §5
structure (smiles),measurement,setting,value
Oc1ccccc1 [phenol],influence of phenol on aerobic proliferation (OD610),Pseudomonas putida F1; 0.10% phenol,significantly affected
same,influence of phenol on aerobic proliferation (OD610),Pseudomonas putida F1; 0.20% phenol,completely inhibited
same,influence of phenol on aerobic proliferation (OD610),Pseudomonas putida S12; 0.10% phenol,significantly affected
same,influence of phenol on aerobic proliferation (OD610),Pseudomonas putida S12; 0.20% phenol,completely inhibited
same,influence of phenol on aerobic proliferation (OD610),Escherichia coli JM109; 0.16% phenol,significantly affected
same,influence of phenol on aerobic proliferation (OD610),Escherichia coli JM109; 0.20% phenol,completely inhibited
same,influence of phenol on aerobic proliferation (OD610),[1]; 0.16% phenol,hardly affected
same,influence of phenol on aerobic proliferation (OD610),[1]; 0.20% phenol,favorable growth
same,influence of phenol on aerobic proliferation (OD610),[1]; 0.24% phenol,able to proliferate
